Results reported in ChEMBL document CHEMBL6092221, “Discovery of a Novel Macrocyclic Noncovalent CDK7 Inhibitor for Cancer Therapy” (J Med Chem, 2024).
Values after ≈ are worked out from the molar mass of the structure shown.

How the values were obtained:
[1] = target: Ribosomal protein S6 kinase alpha-3 (Homo sapiens, UniProt P51812); assay: Inhibition of RSK2 (unknown origin) at 200 nM relative to control; values are per cent of control
[2] = Clearance in mouse at 1 mg/kg, iv; type: ADME, organism-based; conditions: in vivo
[3] = Cmax in Sprague-Dawley rat at 30 mg/kg, po; type: ADME, organism-based; conditions: in vivo
[4] = Oral bioavailability in female Balb/c nude mouse at 5 mg/kg; type: ADME, organism-based; conditions: in vivo
[5] = Metabolic stability in human liver microsomes assessed as intrinsic clearance; type: ADME, Microsome; conditions: read-out: CLH
[6] = AUC(0 to t) in mouse at 5 mg/kg, po; type: ADME, organism-based; conditions: in vivo
[7] = Toxicity in female Balb/c nude mouse xenografted with human OVCAR-3 cells assessed as body weight loss at 2 to 20 mg/kg, po administered once daily and measured for 3 weeks; type: organism-based; conditions: in vivo, 504 h, dose 2-20 mg/kg
[8] = target: Serine/threonine-protein kinase D2 (Homo sapiens) (UniProt Q9BZL6); assay: Inhibition of PRKD2 (unknown origin) at 200 nM relative to control; values are per cent of control
Sequence of Serine/threonine-protein kinase D2 (Homo sapiens) (Q9BZL6 whole entry): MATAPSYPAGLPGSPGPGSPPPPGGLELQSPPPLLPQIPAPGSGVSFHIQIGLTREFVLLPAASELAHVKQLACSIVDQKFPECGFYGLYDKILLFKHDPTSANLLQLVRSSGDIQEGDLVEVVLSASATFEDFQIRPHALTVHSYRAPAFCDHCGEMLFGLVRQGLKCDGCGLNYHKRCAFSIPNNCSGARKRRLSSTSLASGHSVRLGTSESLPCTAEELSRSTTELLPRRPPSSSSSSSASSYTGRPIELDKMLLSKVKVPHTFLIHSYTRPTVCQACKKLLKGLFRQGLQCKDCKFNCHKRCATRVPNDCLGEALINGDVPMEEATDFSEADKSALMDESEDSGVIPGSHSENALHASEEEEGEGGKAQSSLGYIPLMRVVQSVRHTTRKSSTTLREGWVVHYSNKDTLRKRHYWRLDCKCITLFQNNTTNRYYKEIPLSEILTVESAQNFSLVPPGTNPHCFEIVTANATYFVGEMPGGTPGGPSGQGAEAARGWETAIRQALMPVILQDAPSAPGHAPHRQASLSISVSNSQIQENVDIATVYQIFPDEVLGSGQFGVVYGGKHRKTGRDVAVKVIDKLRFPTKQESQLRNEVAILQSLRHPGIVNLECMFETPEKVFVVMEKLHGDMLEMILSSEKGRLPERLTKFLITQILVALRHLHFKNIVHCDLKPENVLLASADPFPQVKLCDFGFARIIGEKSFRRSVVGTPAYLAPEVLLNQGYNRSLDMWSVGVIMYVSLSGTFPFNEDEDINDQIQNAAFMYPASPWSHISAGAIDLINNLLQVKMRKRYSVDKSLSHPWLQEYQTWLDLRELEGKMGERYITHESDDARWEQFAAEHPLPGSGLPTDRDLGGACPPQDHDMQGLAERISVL

[9] = Drug concentration in rat small intestine at 5 mg/kg, po measured after 0.5 hrs; type: ADME, organism-based; conditions: read-out: Ct
HCC70 [10] = assay: Antitumor activity against human HCC70 cells xenografted in female nu/nu mouse assessed as tumor growth inhibition at 10 mg/kg, po administered once daily and measured for 4 weeks; type: functional; conditions: HCC70, 672 h, read-out: TGI
[11] = AUC(0 to t) in rat at 5 mg/kg, po; type: ADME, organism-based; conditions: in vivo
[12] = AUC(0 to t) in dog at 0.2 mg/kg, iv; type: ADME, organism-based, Canis lupus familiaris; conditions: in vivo
[13] = target: T1, Mitogen-activated protein kinase 7 (Homo sapiens, UniProt Q13164); assay: Inhibition of Erk5 (unknown origin) at 200 nM relative to control; values are per cent of control
Target sequence in this assay (Q13164 2-816 limits assumed): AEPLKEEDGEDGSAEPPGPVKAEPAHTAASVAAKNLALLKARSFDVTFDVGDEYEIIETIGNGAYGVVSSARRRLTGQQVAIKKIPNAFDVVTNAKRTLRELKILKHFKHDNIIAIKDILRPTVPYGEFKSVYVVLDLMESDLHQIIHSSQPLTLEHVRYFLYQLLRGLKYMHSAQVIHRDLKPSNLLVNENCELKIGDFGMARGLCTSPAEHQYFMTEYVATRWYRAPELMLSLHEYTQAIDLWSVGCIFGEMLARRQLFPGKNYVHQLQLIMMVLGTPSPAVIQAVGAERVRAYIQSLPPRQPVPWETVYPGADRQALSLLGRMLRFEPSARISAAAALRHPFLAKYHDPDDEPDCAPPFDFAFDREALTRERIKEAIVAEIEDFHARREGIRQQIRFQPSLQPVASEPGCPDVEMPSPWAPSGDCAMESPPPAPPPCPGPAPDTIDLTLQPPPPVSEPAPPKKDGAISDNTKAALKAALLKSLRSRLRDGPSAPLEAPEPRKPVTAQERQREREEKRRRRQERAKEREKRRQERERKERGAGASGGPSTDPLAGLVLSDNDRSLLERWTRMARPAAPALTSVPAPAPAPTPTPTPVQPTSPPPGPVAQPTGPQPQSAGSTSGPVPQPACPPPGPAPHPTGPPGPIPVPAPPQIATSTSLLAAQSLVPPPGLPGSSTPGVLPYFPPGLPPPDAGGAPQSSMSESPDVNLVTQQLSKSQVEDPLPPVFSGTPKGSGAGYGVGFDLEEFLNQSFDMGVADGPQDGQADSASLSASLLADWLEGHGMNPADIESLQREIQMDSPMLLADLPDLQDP

[14] = Drug concentration in rat small intestine at 5 mg/kg, po measured after 2 hrs; type: ADME, organism-based; conditions: read-out: Ct
[15] = Cmax in human HCC70 cells xenografted in female nu/nu mouse plasma at 10 mg/kg, po administered once daily; type: ADME, organism-based
Mus musculus = assay: In vivo inhibition of CDK2 phosphorylation in human HCC70 cells xenografted in female Balb/c nude mouse administered once daily for 7 days; type: functional, organism-based; conditions: dose 2-10 mg/kg, time 7.0 day
[16] = target: Cyclin-dependent kinase 14/Cyclin-Y (Homo sapiens) (UniProt O94921+Q8ND76); assay: Inhibition of CDK14/Cyclin Y (unknown origin) at 200 nM relative to control; values are per cent of control
[17] = Solubility of compound at pH 7.4; type: physicochemical; conditions: buffer
[18] = Clearance in rat at 1 mg/kg, iv; type: ADME, organism-based; conditions: in vivo
[19] = AUC(0 to t) in mouse at 1 mg/kg, iv; type: ADME, organism-based; conditions: in vivo
[20] = Half life in mouse at 5 mg/kg, po; type: ADME, organism-based; conditions: in vivo
[21] = Cmax in female Balb/c nude mouse at 5 mg/kg, po; type: ADME, organism-based; conditions: in vivo
[22] = Half life in dog at 2 mg/kg, po; type: ADME, organism-based, Canis lupus familiaris; conditions: in vivo
[23] = Half life in dog at 0.2 mg/kg, iv; type: ADME, organism-based, Canis lupus familiaris; conditions: in vivo
[24] = Plasma protein binding in rat assessed as unbound fraction; type: ADME, cell-free
[25] = Drug concentration in rat plasma at 5 mg/kg, po measured after 2 hrs; type: ADME, organism-based
CDK18/Cyclin Y = CDK18/Cyclin Y (Homo sapiens, UniProt Q07002+Q8ND76); assay: Inhibition of CDK18/Cyclin Y (unknown origin) at 200 nM relative to control; values are per cent of control
[26] = AUC(0 to 48 hrs) in Sprague-Dawley rat at 300 mg/kg, po; type: ADME, organism-based; conditions: in vivo
[27] = Drug concentration in rat plasma at 5 mg/kg, po measured after 8 hrs; type: ADME, organism-based
OVCAR-3 [28] = assay: Antitumor activity against human OVCAR-3 cells xenografted in female Balb/c nude mouse assessed as tumor growth inhibition at 10 mg/kg, po administered once daily and measured on day 22; type: functional; conditions: OVCAR-3, 528 h, time 22 day, read-out: TGI
[29] = target: Voltage-gated inwardly rectifying potassium channel KCNH2 (Homo sapiens, UniProt Q12809); assay: Inhibition of hERG; type: toxicity
[30] = Half life in mouse at 1 mg/kg, iv; type: ADME, organism-based; conditions: in vivo
Cytochrome P450 1A2 = Cytochrome P450 1A2 (Homo sapiens, UniProt P05177); assay: Inhibition of CYP1A2 (unknown origin); type: ADME
Sequence of Cytochrome P450 1A2 (P05177 whole entry): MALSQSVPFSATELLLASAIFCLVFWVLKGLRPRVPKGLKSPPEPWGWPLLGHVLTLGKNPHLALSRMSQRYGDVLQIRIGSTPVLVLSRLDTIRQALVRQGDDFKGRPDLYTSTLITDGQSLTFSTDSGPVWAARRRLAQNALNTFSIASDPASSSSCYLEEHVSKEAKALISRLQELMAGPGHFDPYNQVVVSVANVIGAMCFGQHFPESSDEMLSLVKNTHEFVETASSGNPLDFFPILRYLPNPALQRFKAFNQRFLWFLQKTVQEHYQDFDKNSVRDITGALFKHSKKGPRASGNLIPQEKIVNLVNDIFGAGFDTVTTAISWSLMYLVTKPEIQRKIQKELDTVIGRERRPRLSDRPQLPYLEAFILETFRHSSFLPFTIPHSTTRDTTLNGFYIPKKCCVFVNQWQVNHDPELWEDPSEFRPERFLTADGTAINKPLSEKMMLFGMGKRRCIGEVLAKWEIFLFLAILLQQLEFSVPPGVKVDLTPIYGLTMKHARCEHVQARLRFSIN

OVCAR-3 [31] = assay: cells; conditions: Homo sapiens, OVCAR-3, 72 h
Description: Antiproliferative activity against human OVCAR-3 cells assessed as inhibition of cell proliferation incubated for 72 hrs by celltiter-glo assay

[32] = target: Serine/threonine-protein kinase D1 (Homo sapiens) (UniProt Q15139); assay: Inhibition of PRKD1 (unknown origin) at 200 nM relative to control; values are per cent of control
[33] = Oral bioavailability in rat at 5 mg/kg; type: ADME, organism-based; conditions: in vivo
[34] = Half life in human HCC70 cells xenografted in female nu/nu mouse plasma at 1 mg/kg, po administered once daily; type: ADME, organism-based
[35] = target: Cyclin-Y/Cyclin-dependent kinase 16 (Homo sapiens) (UniProt Q00536+Q8ND76); assay: Inhibition of CDK16/CyclinY (unknown origin) at 200 nM relative to control; values are per cent of control
[36] = target: Homeodomain-interacting protein kinase 4 (Homo sapiens) (UniProt Q8NE63); assay: Inhibition of HIPK4 (unknown origin) at 200 nM relative to control; values are per cent of control
Sequence of Homeodomain-interacting protein kinase 4 (Homo sapiens) (Q8NE63 whole entry): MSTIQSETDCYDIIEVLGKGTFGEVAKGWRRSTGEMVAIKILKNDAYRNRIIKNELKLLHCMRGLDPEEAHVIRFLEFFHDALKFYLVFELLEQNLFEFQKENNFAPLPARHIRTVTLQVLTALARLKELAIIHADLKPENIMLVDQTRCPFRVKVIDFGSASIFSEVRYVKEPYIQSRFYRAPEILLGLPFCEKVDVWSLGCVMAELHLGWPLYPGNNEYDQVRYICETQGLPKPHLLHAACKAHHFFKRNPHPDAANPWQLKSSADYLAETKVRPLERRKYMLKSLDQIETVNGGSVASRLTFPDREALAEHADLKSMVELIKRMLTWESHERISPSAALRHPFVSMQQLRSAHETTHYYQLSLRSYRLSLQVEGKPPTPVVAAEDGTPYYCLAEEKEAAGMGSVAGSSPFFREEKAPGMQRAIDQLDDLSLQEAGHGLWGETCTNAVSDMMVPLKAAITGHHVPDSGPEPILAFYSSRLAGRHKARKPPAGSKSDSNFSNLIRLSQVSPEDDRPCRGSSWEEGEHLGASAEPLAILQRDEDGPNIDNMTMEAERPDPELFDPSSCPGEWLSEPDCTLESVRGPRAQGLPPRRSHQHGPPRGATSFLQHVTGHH

[37] = target: T1, Mitogen-activated protein kinase 7; assay: Inhibition of Erk5 (unknown origin)
Target sequence in this assay (Q13164 whole entry): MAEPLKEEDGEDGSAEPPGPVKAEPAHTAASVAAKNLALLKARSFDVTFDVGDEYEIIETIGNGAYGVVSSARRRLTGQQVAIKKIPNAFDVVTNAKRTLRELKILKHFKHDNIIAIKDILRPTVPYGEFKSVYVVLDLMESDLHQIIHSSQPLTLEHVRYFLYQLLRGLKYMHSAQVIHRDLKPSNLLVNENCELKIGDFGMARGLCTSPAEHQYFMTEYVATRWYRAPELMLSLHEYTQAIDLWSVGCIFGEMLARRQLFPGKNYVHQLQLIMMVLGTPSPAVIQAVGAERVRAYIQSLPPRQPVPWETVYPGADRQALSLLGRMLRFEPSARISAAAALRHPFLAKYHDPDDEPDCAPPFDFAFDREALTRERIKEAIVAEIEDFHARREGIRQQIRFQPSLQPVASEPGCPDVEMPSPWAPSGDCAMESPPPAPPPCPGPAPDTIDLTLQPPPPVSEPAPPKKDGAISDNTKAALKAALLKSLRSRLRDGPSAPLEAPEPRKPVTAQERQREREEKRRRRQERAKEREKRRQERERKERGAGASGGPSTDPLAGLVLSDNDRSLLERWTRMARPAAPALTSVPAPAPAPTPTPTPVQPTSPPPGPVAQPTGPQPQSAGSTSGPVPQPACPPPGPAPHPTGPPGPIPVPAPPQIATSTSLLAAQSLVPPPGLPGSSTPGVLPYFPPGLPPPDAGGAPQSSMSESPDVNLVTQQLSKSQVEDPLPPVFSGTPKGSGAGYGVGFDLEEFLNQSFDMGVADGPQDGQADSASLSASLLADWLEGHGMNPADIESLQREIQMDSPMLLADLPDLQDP

[38] = target: Cyclin-dependent kinase 7/ cyclin H (Homo sapiens, UniProt P50613); assay: Binding affinity to CDK7/CyclinH (unknown origin) assessed as dissociation constant by SPR assay; type: protein-complex assay
Sequence of Cyclin-dependent kinase 7/ cyclin H (P51946 whole entry): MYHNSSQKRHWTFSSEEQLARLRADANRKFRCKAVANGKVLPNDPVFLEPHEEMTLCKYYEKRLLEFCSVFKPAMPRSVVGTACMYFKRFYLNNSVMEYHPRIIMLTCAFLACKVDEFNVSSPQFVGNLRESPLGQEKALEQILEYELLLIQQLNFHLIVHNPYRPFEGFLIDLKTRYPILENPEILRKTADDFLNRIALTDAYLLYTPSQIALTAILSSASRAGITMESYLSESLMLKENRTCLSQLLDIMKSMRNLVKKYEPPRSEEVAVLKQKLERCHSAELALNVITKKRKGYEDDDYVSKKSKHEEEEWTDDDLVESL
Sequence of Cyclin-dependent kinase 7/ cyclin H (P50613 whole entry): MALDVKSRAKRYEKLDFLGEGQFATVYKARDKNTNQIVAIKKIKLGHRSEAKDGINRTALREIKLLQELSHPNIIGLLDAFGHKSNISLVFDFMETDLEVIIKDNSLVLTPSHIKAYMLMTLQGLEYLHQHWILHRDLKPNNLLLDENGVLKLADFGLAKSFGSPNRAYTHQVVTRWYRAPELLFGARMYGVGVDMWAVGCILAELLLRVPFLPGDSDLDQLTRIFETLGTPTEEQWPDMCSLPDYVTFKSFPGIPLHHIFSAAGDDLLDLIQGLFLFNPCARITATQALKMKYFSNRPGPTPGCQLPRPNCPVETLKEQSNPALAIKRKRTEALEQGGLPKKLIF

[39] = Volume of distribution at steady state in female Balb/c nude mouse at 1 mg/kg, iv; type: ADME, organism-based; conditions: in vivo, read-out: Vdss
OVCAR-3 [40] = assay: Antitumor activity against human OVCAR-3 cells xenografted in female Balb/c nude mouse assessed as tumor growth inhibition at 20 mg/kg, po administered once daily and measured on day 22; type: functional; conditions: OVCAR-3, 528 h, time 22 day, read-out: TGI
[41] = AUC(0 to t) in human HCC70 cells xenografted in female nu/nu mouse plasma at 3 mg/kg, po administered once daily; type: ADME, organism-based
[42] = AUC(0 to t) in dog at 2 mg/kg, po; type: ADME, organism-based, Canis lupus familiaris; conditions: in vivo
HCC70 [43] = assay: Antitumor activity against human HCC70 cells xenografted in female nu/nu mouse assessed as tumor growth inhibition at 3 mg/kg, po administered once daily and measured for 4 weeks; type: functional; conditions: HCC70, 672 h, read-out: TGI
[44] = Half life in human OVCAR-3 cells xenografted in female Balb/c nude mouse plasma at 2 mg/kg, po administered once daily; type: ADME, organism-based

Sequence of Ribosomal protein S6 kinase alpha-3 (P51812 whole entry): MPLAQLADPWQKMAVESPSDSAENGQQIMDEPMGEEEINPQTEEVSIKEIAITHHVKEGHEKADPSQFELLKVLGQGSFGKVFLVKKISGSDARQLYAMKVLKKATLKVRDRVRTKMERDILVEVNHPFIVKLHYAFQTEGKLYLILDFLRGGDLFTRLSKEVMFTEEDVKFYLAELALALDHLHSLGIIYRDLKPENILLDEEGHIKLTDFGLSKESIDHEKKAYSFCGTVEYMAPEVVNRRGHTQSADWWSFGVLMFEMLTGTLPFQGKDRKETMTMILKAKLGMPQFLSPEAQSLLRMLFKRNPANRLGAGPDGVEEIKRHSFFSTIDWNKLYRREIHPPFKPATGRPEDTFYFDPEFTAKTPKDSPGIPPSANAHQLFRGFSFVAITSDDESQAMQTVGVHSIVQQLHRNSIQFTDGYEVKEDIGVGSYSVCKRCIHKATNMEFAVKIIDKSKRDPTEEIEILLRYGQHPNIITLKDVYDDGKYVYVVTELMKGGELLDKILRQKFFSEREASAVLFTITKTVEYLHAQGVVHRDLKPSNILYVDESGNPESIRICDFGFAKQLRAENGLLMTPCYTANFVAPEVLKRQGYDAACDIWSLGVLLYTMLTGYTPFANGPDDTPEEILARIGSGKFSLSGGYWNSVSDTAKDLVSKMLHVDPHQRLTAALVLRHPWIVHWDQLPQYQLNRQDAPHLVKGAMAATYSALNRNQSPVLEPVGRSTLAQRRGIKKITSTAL

Work on `CN1CC(F)(F)CCN(C)[C@H]2CC[C@@H](C2)Nc2ncc(C(F)(F)F)c(n2)-c2c[nH]c3c(P(C)(C)=O)c(ccc23)C1=O` yielded a residual activity [1] of 28%, a clearance [2] of 52.6 mL/min/kg and a Cmax [3] of 1270 ng/mL. The bioavailability [4] was 78.7%, the CLint scaled [5] was 19.6 mL/min/kg and the AUC(0-t) [6] was 938 ng·h/mL. For the same molecule, the Activity [7] was “Non-toxic”, the residual activity [8] was 20% and the concentration at 0.5 h [9] was 2240 ng/g. For the same molecule, the inhibition in vivo at 10 mg/kg (HCC70 [10]) was 175%, the AUC(0-t) [11] was 554 ng·h/mL and the AUC(0-t) [12] was 3070 ng·h/mL. For the same molecule, the residual activity [13] was 5.6%, the concentration at 2 h [14] was 3230 ng/g and the Cmax [15] was 401 ng/mL. The Activity (Mus musculus) was “Dose-dependent-effect”, the residual activity [16] was 1.3% and the solubility [17] was 917 µg/mL (≈ 1530 µM). It also gave a clearance [18] of 39.9 mL/min/kg, an AUC(0-t) [19] of 315 ng·h/mL and a half-life [20] of 4.3 h. It also gave a Cmax [21] of 355 ng/mL, a half-life [22] of 4.4 h and a half-life [23] of 3.4 h. It also gave a fraction unbound [24] of 0.044, a concentration at 2 h [25] of 68.8 ng/mL and a residual activity (CDK18/Cyclin Y) of 2.9%. For the same molecule, the AUC(0-t) [26] was 15300 ng·h/mL, the concentration at 8 h [27] was 3.5 ng/mL and the inhibition in vivo at 10 mg/kg (OVCAR-3 [28]) was 111%. The IC50 [29] was 9940 nM, the half-life [30] was 2 h and the IC50 (Cytochrome P450 1A2) was over 50000 nM. For the same molecule, the IC50 (OVCAR-3 [31]) was 57 nM, the residual activity [32] was 19% and the bioavailability [33] was 29%. It also gave a half-life [34] of 2 h, a residual activity [35] of 0.8% and a residual activity [36] of 9.4%. For the same molecule, the IC50 [37] was 26.5 nM, the Kd [38] was 0.18 nM and the Vd [39] was 1.7 L/kg. It also gave an inhibition in vivo at 20 mg/kg (OVCAR-3 [40]) of 111%, an AUC(0-t) [41] of 203 ng·h/mL and an AUC(0-t) [42] of 44600 ng·h/mL. For the same molecule, the inhibition in vivo at 3 mg/kg (HCC70 [43]) was 120% and the half-life [44] was 1.7 h.
